ChEMBL document CHEMBL1156548, “Determination and characterization of new benzimidazoles with activity against Trypanosoma cruzi by UV spectroscopy and HPLC” (Bioorg Med Chem, 2008)

Assays:
[1] = Partition coefficient, log P of the compound; assay type: physicochemical; conditions: octanol/water
[2] = Ionisation constant, pKa of the compound; assay type: physicochemical
Trypanosoma cruzi [3] = assay: Antiparasitic activity against Trypanosoma cruzi MF epimastigotes after 7 days by nephelometry; assay type: functional, organism-based; conditions: 168 h
Trypanosoma cruzi [4] = assay: Inhibition of oxygen uptake in Trypanosoma cruzi MF epimastigotes at 300 uM by polarography; assay type: functional
[5] = Effective permeability by HPLC-based PAMPA; assay type: ADME; conditions: read-out: permeability
[6] = Ionisation constant, pKa corresponding to weak base of […] benzimidazole ring; assay type: physicochemical
[7] = Effective permeability by UV-based PAMPA; assay type: ADME; conditions: read-out: permeability
[8] = Ionisation constant, pKa corresponding to acid proton of […] benzimidazole ring; assay type: physicochemical

Row | SMILES | logP [1] | pKa [2] | IC50 (Trypanosoma cruzi [3]) [µM] | inhibition at 300 µM (Trypanosoma cruzi [4]) [%] | Papp [5] [×10⁻⁶ cm/s] | pKa [6] | Papp [7] [×10⁻⁶ cm/s] | pKa [8]
1 | O=C(c1ccc(Cl)cc1)n1c(-c2ccccc2[N+](=O)[O-])nc2ccccc21 | 3.6 | 4.69 | 78 |  |  |  |  | 
2 | COc1ccc(C(=O)n2c(-c3ccccc3[N+](=O)[O-])nc3ccccc32)cc1 | 3.2 | 4.71 | 64 |  |  |  |  | 
3 | O=C(c1ccccc1)n1c(-c2ccccc2[N+](=O)[O-])nc2ccccc21 | 3.1 | 4.9 | 94 | 20 |  |  |  | 
4 | O=[N+]([O-])c1ccccc1-c1nc2ccccc2[nH]1 | 2.2 |  | 117 | 40 | 8 | 5.69 | 12 | 11.4
5 | O=C(c1ccc([N+](=O)[O-])cc1)n1c(-c2ccccc2[N+](=O)[O-])nc2ccccc21 | 2.8 | 4.79 | 80 |  |  |  |  | 
